# Assay results from patent US20250171417A1, “HETEROCYCLIC DERIVATIVE, AND COMPOSITION AND PHARMACEUTICAL USE THEREOF” (Xizang Haisco Pharmaceutical Co., Ltd., priority 2021, published 2025).
# System: Prostate cancer cells 22RV1
# Test: Experiment on inhibiting 22RV1 cell proliferation (CellTiter-Glo, 7 days)
# Type: cell-based
# Conditions: Homo sapiens, 168 h, 22RV1 cells, 7 days incubation, cells with nM printed beside the value, read-out: IC50 values for inhibition of 22RVI cells
# Protocol: Prostate cancer cells 22RV1 were purchased from ATCC, the cell medium was RPMI 1640+10% FBS, and the cells were cultured in an incubator at 37° C. under 5% CO2. On day 1, the cells in the exponential growth phase were collected. With a 1% css-FBS phenol red-free medium, the cell suspension was adjusted to a corresponding concentration, plated at 2000 cells/well and incubated overnight. On day 2, compounds at different concentrations were added, and the plate was placed in the incubator and incubated for further 7 days. After the incubation was completed, according to operation instructions for a CellTiter-Glo kit (Promega, G7573), 50 μL of CellTiter-Glo reagents, which were already pre-melted and equilibrated to room temperature, were added to each well, and the mixtures were uniformly mixed for 2 min using a microplate shaker. The plate was placed at room temperature for 10 min. and then […] signal values were measured using a microplate reader (PHERAstar FSX). The results were processed according to formula (I), the inhibition rate of the compound at different concentrations was calculated, and the IC50 value of the compound with an inhibition rate of 50% was calculated using origin9.2 software with DoseResp function, wherein RLUcompound was the readout of the treated group, and RLUcontrol was the average value of the DMSO vehicle control group.
row,SMILES,IC50 [nM]
1,Cc1cc(C(F)(F)F)ccc1NC(=O)C(C)(C)n1cc(C#CC2CN(c3ccc4c(c3)C(=O)N(C3CCC(=O)NC3=O)C4=O)C2)cn1 (stereo not shown) [Compound 59],< 50
2,"CC(C)(C(=O)Nc1ccc(C#N)c2ccccc12)n1cc(C#CC2(F)CN(c3ccc4c(c3)C(=O)N(C3CCC(=O)NC3=O)C4=O)C2)cn1 (stereo not shown) [Compound 68, N-(4-cyanonaphthalen-1-yl)-2-(4-(2-(1-(2-(2,6-dioxopiperidin-3-yl)-1,3-dioxo-2,3-dihydro-1H-isoindol-5-yl)-3-fluoroazetidin-3-yl)ethynyl)-1H-pyrazol-1-yl)-2-methylpropanamide]",< 50
3,"O=C1CCC(N2C(=O)c3ccc(N4CC(C#Cc5cnn(C6(C(=O)Nc7ccc(C(F)(F)F)cc7Cl)CCCC6)c5)C4)cc3C2=O)C(=O)N1 (stereo not shown) [Compound 69, N-(2-chloro-4-(trifluoromethyl)phenyl)-1-(4-((1-(2-(2,6-dioxopiperidin-3-yl)-1,3-dioxoisoindolin-S-yl)azetidin-3-yl)ethynyl)-1H-pyrazol-1-yl)cyclopentane-1-carboxamide]",< 50
4,O=C1CCC(N2C(=O)c3ccc(N4CC(F)(C#Cc5cnn(C6(C(=O)Nc7ccc(C(F)(F)F)cc7Cl)CCC6)c5)C4)cc3C2=O)C(=O)N1 (stereo not shown) [Compound 71],< 50
5,"O=C1CCC(N2C(=O)c3ccc(N4CC(C#Cc5cnn(C6(C(=O)Nc7ccc(C(F)(F)F)cc7Cl)CC6)c5)C4)cc3C2=O)C(=O)N1 (stereo not shown) [Compound 72, N-(2-chloro-4-(trifluoromethyl)phenyl)-1-(4-((1-(2-(2,6-dioxopiperidin-3-yl)-1,3-dioxoisoindolin-5-yl)azetidin-3-yl)ethynyl)-1H-pyrazol-1-yl)cyclopropane-1-carboxamide]",< 50
6,"O=C1CCC(N2C(=O)c3ccc(N4CC(C#Cc5cnn(C6(C(=O)Nc7ccc(C(F)(F)F)c(C8CC8)c7)CCC6)c5)C4)cc3C2=O)C(=O)N1 (stereo not shown) [Compound 75, N-(3-cyclopropyl-4-(trifluoromethyl)phenyl)-1-(4-((1-(2-(2,6-dioxopiperidin-3-yl)-1,3-dioxoisoindolin-5-yl)azetidin-3-yl)ethynyl)-1H-pyrazol-1-yl)cyclobutane-1-carboxamide]",< 50
7,"CC(C(=O)Nc1ccc(C#N)c(C(F)(F)F)c1)n1cc(C#CC2CN(c3ccc4c(c3)C(=O)N(C3CCC(=O)NC3=O)C4=O)C2)cn1 (stereo not shown) [Compound 77, N-(4-cyano-3-(trifluoromethyl)phenyl)-2-(4-((1-(2-(2,6-dioxopiperidin-3-yl)-1,3-dioxoisoindolin-5-yl)azetidin-3-yl)ethynyl)-1H-pyrazol-1-yl) propanamide]",< 50
8,"CC(C)(C(=O)Nc1ccc(C#N)cc1Br)n1cc(C#CC2CN(c3ccc4c(c3)C(=O)N(C3CCC(=O)NC3=O)C4=O)C2)cn1 (stereo not shown) [Compound 82, N-(2-bromo-4-cyanophenyl)-2-(4-((1-(2-(2,6-dioxopiperidin-3-yl)-1,3-dioxoisoindolin-5-yl)azetidin-3-yl)ethynyl)-1H-pyrazol-1-yl)-2-methylpropanamide]",< 50
9,"[2H]C1([2H])C([2H])([2H])C(C(=O)Nc2ccc(C(F)(F)F)cc2Cl)(n2cc(C#CC3CN(c4ccc5c(c4)C(=O)N(C4CCC(=O)NC4=O)C5=O)C3)cn2)C1([2H])[2H] (stereo not shown) [Compound 113, N-(2-chloro-4-(trifluoromethyl)phenyl)-1-(4-((1-(2-(2,6-dioxopiperidin-3-yl)-1,3-dioxoisoindolin-5-yl)azetidin-3-yl)ethynyl)-1H-pyrazol-1-yl)cyclobutane-2,2,3,3,4,4-d6-1-carboxamide]",< 50
10,"CC(C)(C(=O)Nc1ccc(C(F)(F)F)cc1C#CC1CC1)n1cc(C#CC2CN(c3ccc4c(c3)C(=O)N(C3CCC(=O)NC3=O)C4=O)C2)cn1 (stereo not shown) [Compound 116, N-(2-(cyclopropylethynyl)-4-(trifluoromethyl)phenyl)-2-(4-((1-(2-(2,6-dioxopiperidin-3-yl)-1,3-dioxoisoindolin-5-yl)azetidin-3-yl)ethynyl)-1H-pyrazol-1-yl)-2-methylpropanamide]",< 50
11,"Cc1c(C#N)ccc(NC(=O)C(C)(C)n2cc(C#CC3CN(c4ccc5c(c4)C(=O)N(C4CCC(=O)NC4=O)C5=O)C3)cn2)c1C (stereo not shown) [Compound 152, N-(4-cyano-2,3-dimethylphenyl)-2-(4-((1-(2-(2,6-dioxopiperidin-3-yl)-1,3-dioxoisoindolin-5-yl)azetidin-3-yl)ethynyl)-1H-pyrazol-1-yl)-2-methylpropanamide]",< 50
12,"Cc1c(C#CC2CN(c3ccc4c(c3)C(=O)N(C3CCC(=O)NC3=O)C4=O)C2)cnn1C1(C(=O)Nc2ccc(C(F)(F)F)cc2Cl)CCC1 (stereo not shown) [Compound 163, N-(2-chloro-4-(trifluoromethyl)phenyl)-1-(4-((1-(2-(2,6-dioxopiperidin-3-yl)-1,3-dioxoisoindolin-5-yl)azetidin-3-yl)ethynyl)-5-methyl-1H-pyrazol-1-yl)cyclobutane-1-carboxamide]",< 50
13,"CC(C)(C(=O)Nc1ccc(C#N)c2c1C1CCC2C1)n1cc(C#CC2CN(c3ccc4c(c3)C(=O)N(C3CCC(=O)NC3=O)C4=O)C2)cn1 (stereo not shown) [Compound 165, N-(8-cyano-1,2,3,4-tetrahydro-1,4-methanonaphthalen-5-yl)-2-(4-((1-(2-(2,6-dioxopiperidin-3-yl)-1,3-dioxoisoindolin-5-yl)azetidin-3-yl)ethynyl)-1H-pyrazol-1-yl)-2-methylpropanamide]",< 100

# Same assay, conditions: Homo sapiens, 168 h, 22RV1 cells, 7 days incubation, cells without a unit of their own (μM), read-out: IC50 values for inhibition of 22RVI cells
row,SMILES,IC50 [nM]
1,"CNC(=O)c1cc(C(F)(F)F)ccc1NC(=O)C(C)(C)n1cc(C#CC2CN(c3ccc4c(c3)C(=O)N(C3CCC(=O)NC3=O)C4=O)C2)cn1 (stereo not shown) [Compound 52, 2-(2-(4-((1-(2-(2,6-dioxopiperidin-3-yl)-1,3-dioxoisoindolin-5-yl)azetidin-3-yl)ethynyl)-1H-pyrazol-1-yl)-2-methylpropanamido)-N-methyl-5-(trifluoromethyl)benzamide]",< 1000
2,N#Cc1ccc(NC(=O)C2(n3cc(C#CC4CN(c5cc6c(cc5F)C(=O)N(C5CCC(=O)NC5=O)C6=O)C4)cn3)CCC2)c2ccccc12 (stereo not shown) [Compound 80],< 1000
3,CC(C)(C(=O)Nc1ccc(C#N)c2ccccc12)n1cc(C#CC2CN(c3cc4c(cc3F)C(=O)N(C3CCC(=O)NC3=O)C4=O)C2)cn1 (stereo not shown) [Compound 81],< 1000
4,"O=C1CCC(N2C(=O)c3ccc(N4CCC5(CC4)CC(CN4CCC(c6cnn(C7(C(=O)Nc8ccc(C(F)(F)F)cc8Cl)CCC7)c6)CC4)C5)cc3C2=O)C(=O)N1 (stereo not shown) [Compound 85, N-(2-chloro-4-(trifluoromethyl)phenyl)-1 (4-(1-((7-(2-(2,6-dioxopiperidin-3-yl)-1,3-dioxoisoindolin-5-yl)-7-azaspiro[3.5]nonan-2-yl)methyl)piperidin-4-yl)-1H-pyrazol-1-yl)cyclobutane-1-carboxamide]",< 1000
5,"O=C1CCC(N2C(=O)c3ccc(N4CC5CC(CN6CCC(c7cnn(C8(C(=O)Nc9ccc(C(F)(F)F)cc9Cl)CCC8)c7)CC6)CC5C4)cc3C2=O)C(=O)N1 (stereo not shown) [Compound 91, N-(2-chloro-4-(trifluoromethyl)phenyl)-1-(4-(1-((2-(2-(2,6-dioxopiperidin-3-yl)-1,3-dioxoisoindolin-5-yl)octahydrocyclopenta[c]pyrrol-5-yl)methyl)piperidin-4-yl)-1H-pyrazol-1-yl)cyclobutane-1-carboxamide]",< 1000
6,"CC(C)(C(=O)Nc1ccc(C(F)(F)F)cc1-c1ccccc1)n1cc(C#CC2CN(c3ccc4c(c3)C(=O)N(C3CCC(=O)NC3=O)C4=O)C2)cn1 (stereo not shown) [Compound 112, 2-(4-((1-(2-(2,6-dioxopiperidin-3-yl)-1,3-dioxoisoindolin-5-yl)azetidin-3-yl)ethynyl)-1H-pyrazol-1-yl)-2-methyl-N-(5-(trifluoromethyl)-[1,1′-biphenyl]-2-yl) propanamide]",< 1000
7,"CC(C)(C(=O)Nc1ccc(C(F)(F)F)cc1-n1cncn1)n1cc(C#CC2CN(c3ccc4c(c3)C(=O)N(C3CCC(=O)NC3=O)C4=O)C2)cn1 (stereo not shown) [Compound 117, N-(2-(1H-1,2,4-triazol-1-yl)-4-(trifluoromethyl)phenyl)-2-(4-((1-(2-(2,6-dioxopiperidin-3-yl)-1,3-dioxoisoindolin-5-yl)azetidin-3-yl)ethynyl)-1H-pyrazol-1-yl)-2-methylpropanamide]",< 1000
8,"CC(C)(C(=O)Nc1ccc(C(F)(F)F)cc1Cl)n1cnc2ccc(C#CC3CN(c4ccc5c(c4)C(=O)N(C4CCC(=O)NC4=O)C5=O)C3)cc21 (stereo not shown) [Compound 161, N-(2-chloro-4-(trifluoromethyl)phenyl)-2-(6-((1-(2-(2,6-dioxopiperidin-3-yl)-1,3-dioxoisoindolin-5-yl)azetidin-3-yl)ethynyl)-1H-benzo[d]imidazol-1-yl)-2-methylpropanamide]",< 1000
9,"CC(C)(C(=O)Nc1ccc(C(F)(F)F)cc1Cl)n1cnc2cc(C#CC3CN(c4ccc5c(c4)C(=O)N(C4CCC(=O)NC4=O)C5=O)C3)ccc21 (stereo not shown) [Compound 162, N-(2-chloro-4-(trifluoromethyl)phenyl)-2-(5-((1-(2-(2,6-dioxopiperidin-3-yl)-1,3-dioxoisoindolin-5-yl)azetidin-3-yl)ethynyl)-1H-benzo[d]imidazol-1-yl)-2-methylpropanamide]",< 1000
